Activity change, negative = inhibition and AC35 data for 64 compounds are collected here from PubChem BioAssay AID624375 (Broad Institute, 2012).

Records with an inconclusive call do not appear. Active and inactive are the calls of the source.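 Rule for the calls: active = fitted curve reaches -35% activity change at a concentration under twice the top valid dose, in every replicate test; inconclusive = replicate tests disagree on the call; inactive = the rest, including activity in the opposite direction.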

Tested on in the first experiment: not listed separately
The experiment can be described thus: LCL growth inhibition by ATP luminescence – cell-based, CellTiter-Glo, dry powder, replicate tests, EBV LMP1 NF-kB inhibitor project, dose response (AID 624375). The note with it: EBV-transformed LCL viability, CellTiter-Glo ATP luminescence, 48 h; at 10 µM (top of the series).
Take `C/C=C/C/C=C/CCC(=O)[C@H]1O[C@H]1C(N)=O`: the activity change, negative = inhibition is -4.56% (inactive).

The same experiment, now with this note: EBV-transformed LCL viability, CellTiter-Glo ATP luminescence, 48 h; at 12 µM (top of the series).
As for `C=C1C[C@]23C[C@@]1(O)CC[C@H]2[C@@]12C=C[C@H](O)[C@@](C)(C(=O)O1)[C@H]2[C@@H]3C(=O)O`, the activity change, negative = inhibition is 5.8% (inactive).

The experiment is the same for the next values; noted with them: EBV-transformed LCL viability, CellTiter-Glo ATP luminescence, 48 h; at 19.5 µM (top of the series).
With `O=C(CCc1ccccc1)NC(c1cccs1)c1cc(Cl)c2cccnc2c1O` (centres undefined), the activity change, negative = inhibition was 4.93% (inactive).

For `CC1=C(C(=O)OCc2ccc3c(c2)OCO3)C(c2ccc(F)cc2)NC(=O)N1` (centres undefined), the activity change, negative = inhibition was -2.46% (inactive).

As to `COc1cccc(/C=N/Nc2ncnc3c2ncn3Cc2ccccc2)c1O`, the activity change, negative = inhibition was -7.51% (inactive).

Consider `C[C@@H]1CCCCO[C@H](CN(C)C(=O)c2ccccc2)[C@H](C)CN([C@@H](C)CO)C(=O)c2cc(NC(=O)Nc3ccc(F)cc3)ccc2O1`, for which the activity change, negative = inhibition was 2.16% (inactive).

Regarding `CCn1c2ccccc2c2cc(/C=N/n3cnnc3)ccc21`, the activity change, negative = inhibition is -4.23% (inactive).

In the case of `C[C@@H]1CCCCO[C@@H](CN(C)Cc2ccccc2)[C@H](C)CN([C@H](C)CO)C(=O)c2cc(NC(=O)Nc3ccc4c(c3)OCO4)ccc2O1`, the activity change, negative = inhibition was 1.71% (inactive).

As to `COc1ccc(-c2csc3ncnc(NCCN4CCOCC4)c23)cc1`, the activity change, negative = inhibition is -6.51% (inactive).

Regarding `CCc1ccc(/C=C2\SC(=S)N(CCCC(=O)Nc3ccccn3)C2=O)cc1`, the activity change, negative = inhibition was 3.41% (inactive).

`C=CCN1Cc2ccccc2[C@@H]2OC(c3ccc(OCCCO)cc3)=N[C@]2(CCC(=O)OC(C)(C)C)C1=O`: the activity change, negative = inhibition is 1.04% (inactive).

For the compound `CCc1ccc(/C=C/C(=O)C2C(=O)c3ccccc3C2=O)cc1`, the activity change, negative = inhibition was 10.9% (inactive).

Take `CCc1sc(C(=O)Nc2ncccc2O)cc1C`: the activity change, negative = inhibition was -13.2% (inactive).

In the case of `c1ccc(-c2cn3c4c(sc3n2)CCCC4)cc1`, the activity change, negative = inhibition is 6.87% (inactive).

As to `CCCSc1nnc2c3ccccc3n(Cc3ccccc3)c2n1`, the activity change, negative = inhibition is -1.02% (inactive).

Regarding `COc1ccc(-c2cc3nc4n(c(=O)c3s2)CCC4)cc1`, the activity change, negative = inhibition is -3.35% (inactive).

For `C[C@@H]1CCCCO[C@H](CN(C)S(=O)(=O)c2ccccc2)[C@@H](C)CN([C@@H](C)CO)C(=O)c2cc(N(C)C)ccc2O1`, the activity change, negative = inhibition is -2.16% (inactive).

A further experiment concerns EBV-transformed LCL viability, CellTiter-Glo ATP luminescence, 48 h. The experiment is described as above.
Conditions: not given
Regarding `CC(C)=CCN(C(=O)C#Cc1ccccc1)[C@H](CO)c1ccccc1`, the AC35 was 8.22 µM.

With `O=c1[nH]c(=O)n([C@H]2C[C@H](O)[C@@H](CO)O2)cc1C(F)(F)F`, the AC35 is 10.1 µM.

With `C[C@H](CO)N1C[C@H](C)[C@H](CN(C)C(=O)Nc2ccc(C(F)(F)F)cc2)OCCCC[C@H](C)Oc2ccc(NC(=O)Nc3ccc(F)cc3)cc2C1=O`, the AC35 is 21.5 µM.

With `C/C(=N\NC(=S)N1CCN(c2ccccn2)CC1)c1ccccn1`, the AC35 is below 0.08 µM.

Turning to `C/C(=N\NC(=S)Nc1cccc(C)c1)c1ccccn1`, the AC35 is below 0.08 µM.

Consider `CCN1CCN(C(c2cccnc2)c2cc(Cl)c3cccnc3c2O)CC1` (centres undefined), for which the AC35 was 26.5 µM.

In the case of `C/C(=N\NC(=S)Nc1ccccc1)c1ccccn1`, the AC35 was below 0.08 µM.

As to `C/C(=N\NC(=S)Nc1cccc(Cl)c1)c1ccccn1`, the AC35 was below 0.08 µM.

With `C[C@@H]1CCCCO[C@H](CN(C)C(=O)NC2CCCCC2)[C@H](C)CN([C@@H](C)CO)C(=O)c2cc(NC(=O)C3CCCCC3)ccc2O1`, the AC35 was 22.1 µM.

As to `COCCCNC(=O)C(C)Sc1nnc2c3cc(C)ccc3n(Cc3ccccc3F)c2n1` (centres undefined), the AC35 is 25 µM.

`C/C(=N\NC(=S)N1CCCCCC1)c1ccccn1`: the AC35 was below 0.08 µM.

`Fc1ccc2c(c1)c1nnc(SCCN3CCOCC3)nc1n2Cc1ccccc1`: the AC35 is 4.38 µM.

Consider `S=C(NCc1ccccn1)N/N=C/c1ccccn1`, for which the AC35 is below 0.08 µM.

For `O=C1/C(=C/c2ccncc2)SC(=S)N1Cc1ccccc1`, the AC35 is 38.5 µM.

As for `COc1ccc2[nH]c(C(=O)N/N=C/c3ccc(O)cc3O)cc2c1`, the AC35 was 26.7 µM.

Turning to `COc1ccccc1NC(=S)N/N=C(\C)c1ccccn1`, the AC35 was below 0.08 µM.

With `CC(=O)Nc1nc(C)c(-c2csc(Nc3ccc(O)cc3)n2)s1`, the AC35 was 22.8 µM.

Turning to `Cc1ccnc(NC(=O)c2ccc(C(=O)c3ccccc3)cc2)c1`, the AC35 was 24.1 µM.

On to `C/C(=N\NC(=S)N1CCCCC1)c1ccccn1`, for which the AC35 was below 0.08 µM.

Consider `C/C(=N\NC(=S)N1CC2CCC(CC2)C1)c1ccncn1`, for which the AC35 was below 0.08 µM.

On to `C=C1C[C@]23C[C@@]1(O)CC[C@@H]2c1cccc(C)c1[C@@H]3C(=O)O`, for which the AC35 is 9.19 µM.

As for `CSC(=S)N/N=C(\C)c1cccc(C)n1`, the AC35 was 0.687 µM.

Consider `C/C(=N\NC(=S)N1CCCCC1)c1cccc(C)n1`, for which the AC35 is below 0.08 µM.

On to `C/C(=N\NC(=S)N1CC2CCC(CC2)C1)c1cnccn1`, for which the AC35 was below 0.08 µM.

For `C[C@@H]1CN([C@@H](C)CO)C(=O)c2cc(NC(=O)Nc3ccc(C(F)(F)F)cc3)ccc2O[C@@H](C)CCCCO[C@H]1CN(C)Cc1ccc(C(F)(F)F)cc1`, the AC35 was 30.8 µM.

On to `C[C@@H]1CN([C@@H](C)CO)C(=O)c2cc(NC(=O)Nc3ccc4c(c3)OCO4)ccc2O[C@H]1CN(C)CC1CCCCC1`, for which the AC35 is 89.9 µM.

Turning to `C[C@@H]1CN([C@@H](C)CO)C(=O)c2cccc(NC(=O)Nc3cccc4ccccc34)c2O[C@H]1CN(C)C(=O)Nc1ccc(C(F)(F)F)cc1`, the AC35 was 29.8 µM.

As for `C/C(=N\NC(=S)N1CCC1)c1ccccn1`, the AC35 is below 0.08 µM.

Regarding `C[C@H]1CCCCO[C@@H](CN(C)CC2CCCCC2)[C@@H](C)CN([C@@H](C)CO)C(=O)c2cc(NC(=O)C3CCCCC3)ccc2O1`, the AC35 is 18.1 µM.

On to `C/C(=N\NC(=S)N1CC2CCC(CC2)C1)c1cccc(C)n1`, for which the AC35 was 0.409 µM.

`C[C@H](CO)N1C[C@H](C)[C@@H](CN(C)CC2CC2)OCCCC[C@H](C)Oc2ccc(NC(=O)Nc3cccc4ccccc34)cc2C1=O`: the AC35 is 43 µM.

On to `CCC(Sc1nnc2c3ccccc3n(Cc3ccc(Br)cc3)c2n1)C(=O)NCCCN1CCOCC1` (centres undefined), for which the AC35 was 8.58 µM.

With `C/C(=N\NC(=S)N1CCN(C2CCCCCC2)CC1)c1ccccn1`, the AC35 was below 0.08 µM.

Take `CC12CCC3C(CC=C4CC(O)CCC43CO)C1CCC2OC(=O)c1ccccc1` (centres undefined): the AC35 was 45.6 µM.

`CSc1nc(-c2ccc(C)cc2)nc(C(Cl)Cl)n1`: the AC35 is 21.7 µM.

In the case of `COc1ccc(NC(=O)c2ccc(OC(C)C(=O)O)cc2)cc1Cl` (centres undefined), the AC35 is 34.1 µM.

For the compound `C/C(=N\NC(=S)Nc1ccccc1Cl)c1ccccn1`, the AC35 was below 0.08 µM.

Consider `Nc1ccn([C@@H]2O[C@H](CO)[C@@H](O)C2O)c(=O)n1` (some centres undefined), for which the AC35 is 26.1 µM.

As to `C[C@@H]1CN([C@@H](C)CO)C(=O)c2cc(NC(=O)Nc3ccc(C(F)(F)F)cc3)ccc2O[C@@H](C)CCCCO[C@@H]1CN(C)CC1CCCCC1`, the AC35 is 45.7 µM.

With `C[C@H](CO)N1C[C@H](C)[C@@H](CN(C)Cc2ccc(-c3ccccc3)cc2)Oc2ccc(NC(=O)Nc3cccc4ccccc34)cc2CC1=O`, the AC35 is 28.8 µM.

On to `S=C(N/N=C(\c1ccccc1)c1ccccn1)N(Cc1ccccn1)Cc1ccccn1`, for which the AC35 was 0.135 µM.

For the compound `C/C(=N\NC(=S)N1CCCC1)c1ccccn1`, the AC35 is below 0.08 µM.

Take `O=C(CSc1nnc2c3ccccc3n(Cc3ccccc3)c2n1)NCc1ccco1`: the AC35 is 44.1 µM.

With `C/C(=N\NC(=S)N1CC2CCC(CC2)C1)c1ccccn1`, the AC35 is below 0.08 µM.

For the compound `Cc1c(NC(=O)c2cccc(NC(=O)COc3ccccc3C#N)c2)c(=O)n(-c2ccccc2)n1C`, the AC35 was 45.6 µM.

On to `C/C(=N\NC(=S)Nc1ccc(C)cc1)c1ccccn1`, for which the AC35 was below 0.08 µM.

Turning to `Cc1ccc(NC(=O)C2CCN(S(=O)(=O)c3ccc4c(c3)NC(=O)C(C)S4)CC2)cc1Cl` (centres undefined), the AC35 was 45.7 µM.
